Experimental data: article PMC5818482, “Experimental study of the anti-tumour activity and pharmacokinetics of arctigenin and its valine ester derivative” (Scientific Reports, 2018)
Values after ≈ are worked out from the molar mass of the structure shown. Values joined by “and” are separate entries in the source; they are usually repeats but may differ in a detail not shown here. Equal entries are not always repeated. Where two headings read alike, the source gives them in different places.

How the values were obtained:
[1] = Nitrite scavenging activity, diazo coupling spectrophotometric method (in vitro anti-tumour experiment)
Description: Numerous methods for nitrite clearance have been reported, such as spectrophotometric, chromatographic-mass spectrometric, electrochemical, and fluorescence methods. Considering various factors, we decided to use diazo coupling spectrophotometry to perform this experiment. […] On the other hand, it may be that ARG-V also has the ability to bind nitrite such that the nitrite content decreased, achieving the purpose of clearing nitrite.
Our team has studied the […] scavenging activity of ARG and ARG-V using diazo coupling spectrophotometric method.

[2] = system: H22 hepatocellular carcinoma; test: In vivo anti-tumour experiment in H22 tumour-bearing mice (tumour growth, body weight, immune organ indexes); conditions: 14 days
Description: SPF (specific pathogen free) grade, male ICR mice with body weights ranging from 19 to 21 g were obtained from the Laboratory Animal Quality Testing Center of Jilin Province. The ICR mice were divided into 7 groups as follows: the normal group, the model group, the cyclophosphamide (CTX) group, the ARG group, the high dose ARG-V group, the middle dose ARG-V group and the low dose ARG-V group. H22 hepatocarcinoma cells were purchased from the Institute of Biochemistry and Cell Biology, CAS.
(§1) To prepare the ascitic tumour-bearing model, 0.2 mL of the cell suspension (1 × 10^5 cells/mouse) was injected into the shoulder of the right limb subcutaneously in each mouse. Twenty-four hours after the tumour inoculation with H22 cells, the ICR mice were divided into 7 groups as follows: the normal group, the model group, the cyclophosphamide (CTX) group, the ARG group, the high dose ARG-V group, the middle dose ARG-V group, and the low dose ARG-V group. The positive control group received CTX at a dosage of 25 mg/kg by intraperitoneal injection. The model group and the normal group were treated with the same amount of normal saline by P.O. once a day. The mice were given an ARG suspension solution mixed with sodium carboxymethyl cellulose at a daily dose of 40 mg/kg, and ARG-V dissolved in saline at different dosages was administered orally. The mice in each group were treated continuously for 14 days. Before and after each drug administration, the size of the tumours were measured, and the weights of the mice were recorded. Twenty-four hours after the last administration, the mice were killed by cervical dislocation, and blood samples were collected from the eyes of the mice. The tumour, spleen, and thymus of the mice were taken out and weighed on an electronic balance.

[3] = Stability of ARG QC samples in rat plasma; type: in vitro ADME; conditions: three concentrations; room temperature 12 hours, −20 °C for a month, three freeze-thaw cycles
Procedure: The ARG stock solution was diluted with plasma to make quality control (QC) samples, and the QC samples were prepared at three concentrations of low, medium and high (0.02, 0.1, and 2 μg/mL). The QC samples were kept at room temperature for 12 h, and freeze-thaw cycles were repeated 3 times. The QC samples were kept at −20 °C for 30 days.

[4] = system: Beagle dogs; design: method as in earlier work; conditions: cited from earlier work
[5] = design: method as in PMID 27685612; conditions: patients with advanced pancreatic cancer refractory to gemcitabine; second peaks indicate enterohepatic circulation; cited from earlier work
[6] = Solubility according to the Chinese Pharmacopoeia, 2015 edition; type: physicochemical; conditions: for Solubility in Acetonitrile: solvent acetonitrile; for Solubility in Acetonitrile:water 45:55: solvent acetonitrile:water 45:55; for Solubility in Cloroform: solvent chloroform; for Solubility in Ethyl acetate: solvent ethyl acetate; for Solubility in Water: solvent water
Procedure: Solubility is a physical property of the drug. The reaction was performed according to the Chinese Pharmacopoeia, 2015 edition.

[7] = system: H22 tumour-bearing mice; test: Serum ALT, AST, BUN and CRE in H22 tumour-bearing mice; conditions: for BUN / CRE: Fig. 2(b); for Serum ALT / Serum AST: Fig. 2(a)
Procedure: as §1
AST and ALT are clinical indexes of liver function, used in medicine to judge whether the liver is damaged. BUN and CRE are used to judge whether the kidney is damaged. They were analysed by a commercially available reagent kit according to the instructions.

[8] = Pharmacokinetics after oral (intragastric) administration to rats, plasma ARG by HPLC, 3P97 fit; type: in vivo, Wistar rats; conditions: for AUC / CL/F(s): intragastric, X ± SD, n = 6; for AUC value: oral
Procedure: Male Wistar rats (8 weeks, 230–250 g) were purchased from Liaoning Changsheng Biotechnology Co., Ltd. (Certificate No. SCXK-2015-0001) and acclimated to the laboratory environment for 1 week.
After the frozen plasma thawed, a 0.2 mL rat plasma sample was placed in an Eppendorf tube containing 5 µL of the IS working solution and 1 mL of acetonitrile with 0.1% formic acid and mixed evenly with a turbine mixer for 3 minutes. It was then separated by centrifugation (12000 rpm, 10 min, 4 °C). The supernatant was withdrawn and evaporated to dryness under N2. The dry residue was reconstituted by mixing it with 50 μL of acetonitrile for 1 minute and separated by centrifugation (16000 rpm, 5 min, 4 °C), and a 20 μL aliquot was injected into the HPLC system for analysis.
The rats received ARG and ARG-V by oral administration. Blood samples were obtained via the oculi chorioideae vein before oral administration and at 1, 3, 5, 10, 15, 30, 45, 60, 90, 120, 150, 180, 240, and 360 min after administration. The whole blood samples were separated by centrifugation (8000 rpm, 10 min), and the plasma was obtained and stored at −20 °C until analysis.
Analytes were separated on a Thermo BDS HYPERSIL C18 column (4.6 × 250 mm, 5 μm) at a flow rate of 1.0 mL/min. The column was maintained at 30 °C. The mobile phase consisted of acetonitrile and 0.1% formic acid water (45:55 v/v). Detection was done at a wavelength of 280 nm.
The values are presented as the mean ± standard deviation (SD). The concentration-time curve was drawn, and data were processed using the 3P97 software.

[9] = system: serum cytokines TNF-α, IL-2, VEGF; test: Serum cytokines (TNF-α, IL-2, VEGF) by ELISA in H22 tumour-bearing mice; type: in vivo, ICR mice; conditions: for Expression level of IL-2: compared to the tumour model group; for Expression level of IL-2 / Serum TNF-α level: Fig. 2(c); for Serum VEGF: Fig. 2(d)
Procedure: as §1
The serum levels of the cytokines IL-2, IL-6, VEGF and TNF-α were analysed using a commercially available ELISA kit according to the manufacturer’s instruction.

[10] = concentration 0.125 mg/mL, in % (unit assumed)
[11] = concentration 0.25 mg/mL, in % (unit assumed)
[12] = concentration 0.5 mg/mL, in % (unit assumed)
[13] = concentration 1 mg/mL, in % (unit assumed)
[14] = concentration 2 mg/mL, in % (unit assumed)
[15] = concentration 4 mg/mL, in % (unit assumed)
[16] = 40 mg/kg oral daily, mean ± SD, n = 8
[17] = first of three concentrations (low dosage)
[18] = second of three concentrations (middle dosage)
[19] = third of three concentrations (high dosage)
[20] = 25 mg/kg intraperitoneal, mean ± SD, n = 8

IC50 (nitrite scavenging) [1] [µg/mL] | Structure (SMILES) | Clearance rate on nitrite [1, 10] | Clearance rate on nitrite [1, 11] | Clearance rate on nitrite [1, 12] | Clearance rate on nitrite [1, 13] | Clearance rate on nitrite [1, 14] | Clearance rate on nitrite [1, 15] | Inhibitory rate ([2]; 40 mg/kg oral daily) | Tumor weight [2, 16] | Solubility in Acetonitrile [6] | Solubility in Acetonitrile:water 45:55 [6] | Solubility in Cloroform [6] | Solubility in Ethyl acetate [6] | Solubility in Water [6] | BUN ([7]; compared to the CTX group) | Serum ALT ([7]; compared to the model group) | Serum AST ([7]; compared to the model group) | AUC value [8, 17] [ng·h/mL] | AUC value [8, 18] [ng·h/mL] | AUC value [8, 19] [ng·h/mL] | further results
690 (≈ 3.92 mM) | O=C1O[C@H]([C@@H](O)CO)C(O)=C1O [VC] | – | – | – | – | – | – | – | – | – | – | – | – | – | – | – | – | – | – | – | Clearance rate on nitrite ([1]; concentration 0.125 mg/mL): 7.30 ± 0.06; Clearance rate on nitrite ([1]; concentration 0.25 mg/mL): 17.23 ± 0.00; Clearance rate on nitrite ([1]; concentration 0.5 mg/mL): 25.84 ± 0.03; Clearance rate on nitrite ([1]; concentration 1 mg/mL): 54.49 ± 0.02; Clearance rate on nitrite ([1]; concentration 2 mg/mL): 96.32 ± 0.00; Clearance rate on nitrite ([1]; concentration 4 mg/mL): 97.75 ± 0.00
2190 (≈ 4.64 mM) | COc1ccc(CC2COC(=O)C2Cc2ccc(OC(=O)C(N)C(C)C)c(OC)c2)cc1OC (stereo not drawn) [ARG-V] | 20.22 ± 0.00 | 27.90 ± 0.05 | 35.21 ± 0.07 | 45.51 ± 0.01 | 64.04 ± 0.01 | 69.10 ± 0.04 | 69.2% and 69.27% | 0.55 ± 0.15^**,aa g | slight soluble | very soluble | freely soluble | almost insoluble | freely soluble | significant difference | decreased | decreased | 253 | 391 | 574 | Increase of nitrite removal ability compared with ARG ([1]; concentration 4 mg/mL): more than 75%; Inhibitory rate ([2]; 20 mg/kg oral daily): 42.46%; Tumor weight ([2]; 20 mg/kg oral daily, mean ± SD, n = 8): 1.03 ± 0.19^**,##,a g; Inhibitory rate ([2]; 80 mg/kg oral daily): 63.13%; Tumor weight ([2]; 80 mg/kg oral daily, mean ± SD, n = 8): 0.66 ± 0.17^**,#,aa g; Expression level of IL-2 [9]: significantly higher; Serum VEGF ([9]; compared with the model group): decreased; Serum TNF-α level ([9]; three doses, compared with the CTX group): increased significantly; BUN ([7]; compared to the model group): decreased significantly; CRE ([7]; compared to the model group): decreased significantly
– | O=P1(N(CCCl)CCCl)NCCCO1 (stereo not drawn) [CTX, Cyclophosphamide] | – | – | – | – | – | – | – | – | – | – | – | – | – | – | obviously increased | obviously increased | – | – | – | Increase of body weight ([2]; 25 mg/kg intraperitoneal): 4.37 g; Inhibitory rate ([2]; 25 mg/kg intraperitoneal): 72.06%; Spleen index [2, 20]: 4.40 ± 0.40 mg/g; Thymus index [2, 20]: 1.24 ± 0.20 mg/g; Tumor weight [2, 20]: 0.50 ± 0.11 g; Expression level of IL-2 [9]: obviously decreased; Serum TNF-α level ([9]; compared with the model group): significantly decreased; Serum VEGF ([9]; compared with the model group): decreased significantly

Structure (SMILES) | IC50 (nitrite scavenging) [1] [µg/mL] | Clearance rate on nitrite [1, 10] | Clearance rate on nitrite [1, 11] | Clearance rate on nitrite [1, 12] | Clearance rate on nitrite [1, 13] | Clearance rate on nitrite [1, 14] | Clearance rate on nitrite [1, 15] | Inhibitory rate ([2]; 40 mg/kg oral daily) | Tumor weight [2, 16] | Solubility in Acetonitrile [6] | Solubility in Acetonitrile:water 45:55 [6] | Solubility in Cloroform [6] | Solubility in Ethyl acetate [6] | Solubility in Water [6] | BUN ([7]; compared to the CTX group) | Serum ALT ([7]; compared to the model group) | Serum AST ([7]; compared to the model group) | AUC value [8, 17] [ng·h/mL] | AUC value [8, 18] [ng·h/mL] | AUC value [8, 19] [ng·h/mL] | further results
COc1cc(C[C@H]2C(=O)OC[C@@H]2Cc2ccc(OC)c(OC)c2)ccc1O [ARG, Arctigenin] | 17490 (≈ 47 mM) | 17.60 ± 0.02 | 23.41 ± 0.02 | 27.72 ± 0.03 | 31.09 ± 0.02 | 34.46 ± 0.02 | 39.14 ± 0.07 | 26.26% | 1.32 ± 0.34 g | very soluble | very soluble | freely soluble | freely soluble | almost insoluble | no significant difference | decreased | decreased | 228 | 316 | 424 | Stability in rat plasma QC samples [3]: good results; Toxicity in Beagle dogs ([4]; 60 mg/kg group, subcutaneous injection, except the stimulus response at the administration location): no overt toxicity; Toxicity in Beagle dogs ([4]; repeated subcutaneous injection of large doses): can induce injury to the liver and biliary duct; Form of ARG in patients [5]: exists as arctigenin glucuronide (AGG); CRE ([7]; compared to the CTX group): no significant difference; AUC ([8]; high dosage): 25419.859 ± 5497.001 (ng/mL)*min; CL/F(s) ([8]; high dosage): 0.009 ± 0.003 mg/kg/min/(ng/mL); AUC ([8]; low dosage): 13687.547 ± 3050.502 (ng/mL)*min; CL/F(s) ([8]; low dosage): 0.004 ± 0.001 mg/kg/min/(ng/mL); AUC ([8]; middle dosage): 18971.963 ± 5515.267 (ng/mL)*min; CL/F(s) ([8]; middle dosage): 0.006 ± 0.003 mg/kg/min/(ng/mL)
